Assay [1] concerns mitochondria-bound hexokinase (mitochondrial fraction from a CT-26 tumor). Briefly: Hexokinase detachment assay, mitochondrial fraction of CT-26 tumor. The class given is biochemical, murine. The settings on record: CT-26 tumor mitochondrial fraction. As for the experimental part:
Mitochondrial fraction was prepared by mechanical lysis and differential centrifugation. All stages were performed on ice. Cells or extracted tissues were washed with PBS and disrupted by homogenization in extraction buffer (Sucrose 250 mM, HEPES-NaOH 10 mM, pH 7.2) freshly supplemented with 0.1 mM EDTA and Protease Inhibitors cocktail (Sigma). For each gram of cells or tissue, 4 volumes of extraction buffer were applied. The homogenate volume was doubled with the extraction buffer, and tissue and cell debris as well as nuclei were pelleted by centrifugation of 1,000 g for 10 minutes. The supernatant was further spun at 13,000 g for 10 minutes twice. Endoplasmic reticulum layer was removed. The pellet, designated as the mitochondrial fraction, was suspended in the appropriate buffer, depending on the assay for which the mitochondrial fraction was prepared. Mitochondrial fractions were used immediately or stored at −196° C.
To determine the amount of hexokinase detached from the mitochondrial fraction by different agents, mitochondria were incubated with the agent of interest and pelleted by centrifugation. Activity of hexokinase in the supernatant (i.e., activity of the detached hexokinase) was determined spectrophotometrically at 340 nm. The reaction couples the ADP formation by hexokinase, consuming the ADP for pyruvate formation by pyruvate kinase, and reducing the pyruvate with NADH by lactate dehydrogenase. Briefly, mitochondria were suspended in incubation buffer (HEPES pH 7.4 20 mM, Sucrose 0.25M, Glucose 10 mM, KCl5 mM, MgCl2 10 mM; 0.2 mg/test, 100 μL/test) and incubated as described below. […]
Methyl jasmonate perturbs mitochondria directly in a PTPC-dependent manner (Rotem, 2005). In order to determine whether methyl jasmonate is able to detach hexokinase from mitochondrial fraction isolated from CT-26 tumors, the activity of hexokinase in the supernatant of mitochondrial fraction treated for different time periods was measured. […] The activity of unbound hexokinase was measured and compared to the activity of spontaneously detached hexokinase (control).

For assay [2], the system named is HKI and HKII (mitochondrial fraction of CT-26 tumor). Briefly: Western blot of supernatants with anti-HKI and anti-HKII, CT-26 tumor mitochondrial fraction. It counts as biochemical, murine. Here is the method:
(§1) For analysis of hexokinase levels, the experiments were performed similarly to hexokinase detachment assay described above, and unbound hexokinase in the supernatant fraction was extracted as described in Fingrut (2005). Samples were separated by sodium dodecylsulfate-polyacrylamide gel (7%) electrophoresis followed by immunoblotting. The blots were probed with specific anti-HKI or anti-HKII antibodies (1:300, Santa-Cruz Biotechnology, CA, USA). Hexokinase-antibody complexes were stained with HRP-conjugated antibody (1:10,000, Santa-Cruz Biotechnology, CA, USA). Enhanced chemiluminescence (ECL) reagent (Biological Industries, Beit Haemek, Israel) was added, and the blots were exposed to ECL film (Eastman Kodak, Rochester, N.Y., USA). In order to verify physical detachment of mitochondrial hexokinase, similar preparations were separated on SDS-PAGE, electroblotted to nitrocellulose membrane and probed with anti-HKI and anti-HKII antibodies.
On the technique in general: Immunoblotting shows a protein as a band on a membrane.

In assay [3] the test system is HKI and HKII (mitochondrial fraction of Molt-4 cells). Briefly: Western blot of supernatants with anti-HKI and anti-HKII, Molt-4 mitochondrial fraction. The class given is biochemical, human. The settings on record: Molt-4 mitochondrial fraction supernatant. As for the experimental part:
as §1, with “Hexokinase detachment from mitochondrial fraction is not limited” for “In order”, “CT-26 colon carcinoma. Mitochondrial fractions isolated from different cancer cells, namely Molt-4 cells, BCL-1 leukemic cells and B16 melanoma tumors were incubated for 30 minutes at 37° C., and the activity” for “verify physical detachment”, “unbound hexokinase was measured and compared to the activity of spontaneously (control) detached hexokinase. […] The supernatant of the experiments” for “mitochondrial hexokinase, similar preparations”, “SDS-PAGE” for “SDS-PAGE, electroblotted to nitrocellulose membrane”

Consider 1 molecule from US8349553B2, “Jasmonate based assays for identifying compounds that selectively inhibit mitochondrial bound hexokinases” (Ramot at Tel Aviv University Ltd., priority 2007, dated 2013).

With `CC/C=C\CC1C(=O)CCC1CC(=O)OC` (stereo not shown) [methyl jasmonate], in assay [1] (3 mM, 10, 30 or 60 minutes at 37° C.), the “detachment of hexokinase (activity of unbound hexokinase compared to spontaneously detached control), time course” value is “detached hexokinase in a time-dependent manner”. The “detachment of hexokinase (activity of unbound hexokinase compared to control), dose dependence” value in assay [1] (30 minutes of incubation) is “dose-dependent”. In addition, the “physical release of HKI and HKII into supernatant (immunoblot)” value in assay [2] was “release of both HKI and HKII were demonstrated”. In addition, the “detachment of hexokinase confirmed by immunoblot (anti-HKI, anti-HKII)” value in assay [3] is “detachment of hexokinase from mitochondrial fraction of the various cancer cells was further confirmed”.
